Where a name gives a salt, the structure may show the parent alone. Read-outs that look alike come from different tables or passages of the source.
Columns and labels:
[1] = system: rat; assay: Rat tail flick assay (tail flick latency in response to heat); format: in vivo; details: read-out: % MPE (Maximum Possible Effect), tail flick
Text: The Tail Flick Assay, based upon the methods of D'Amour & Smith (J. Pharmacol. Exp. Therap., 72: 74-79, 1941), is used to measure loss of pain sensation in the rat tail, allowing the experimenter to screen drugs for analgesic effect. Since then, the method has been used in a number of publications. For example, it was used to evaluate the analgesic effect of O-alkyl derivatives of tramadol by Liming Shao and Michael Hewitt etc. (Boiorganic & Medicinal Chemistry Letters, 18:1674-1680, 2008).
A Tail Flick Unit is used to measure tail flick latency in response to heat. The unit consists of an infrared (I.R.) source (50 W bulb) with adjustable intensity that is focused through a flush mounted window on the upper panel of the unit and onto the rat tail. Once I.R. source is focused on the rat tail and turned on, a timer starts. When the thermal threshold for pain is reached and the rat flicks its tail, the I.R source automatically shuts off and the timer stop, displaying the latency time.
On the day of experiment, the animals are tested to determine baseline latency. Each rat is given one test to determine latency to tail flick with a cut off 10 seconds. Baselines are recorded and those animals with a baseline latency of 2-5 seconds are used in the experiment. Animals are divided into several groups according to the baseline latency. The Tail-flick latencies are measured at different timepoints for up to 180 minutes after administration of vehicle or test articles. If treatment group continues to display pain control after 180 minutes, additional measurements are taken every 60 minutes until pain control is no longer observed.
I.R. Source is set at 40 units (determined to elicit tail flick response in desired 2-5 seconds in naïve animals).
Test articles or vehicle are administered by intravenous (IV) injection through the tail vein or by oral gavage at time 0. Animals are gently restrained and held on top of a tail flick unit. The tail is then wiped clean with a cotton square and placed over the I.R. source so that the beam is focused at approximately midway the length of the tail. After the rat is in position, the I.R. source is turned on. When the thermal threshold for pain is reached, the rat flicked its tail and the I.R. source automatically shuts off. Latency time (in seconds) is then recorded.
Data are recorded and graphed as % MPE (Maximum Possible Effect). % MPE is calculated using the following formula: % MPE=[(Test latency−Baseline latency)/(Cut off latency(10 sec.'s)−Baseline latency)]*100
Compounds were administered by the IV route in 20% 2-hydroxypropyl-beta-cyclodextrin (20% HP-β-CD). The dose levels of test article were 2.5, 5, or 20 mg/kg. Examples 2, 3, 13, 40, 77, 78, 114, and Tramadol provided at least 50% MPE at 20 mg/kg. Compounds 5, 8, 17, 105, 107, 148, 158, and 159 provided at least 50% MPE at 5 mg/kg. Compounds 82, 84, and 116 provided at least 50% MPE at 2.5 mg/kg.
Compounds were administered by oral gavage in 0.5% methylcellulose at 20 or 30 mg/kg. Examples 2, 3, 13, 115, and Tramadol provided at least 50% MPE at 30 mg/kg. Compounds 5, 39, 65, 106, and 115 provided at least 50% MPE at 20 mg/kg.

[2] = Unspecified bioassay(s); details: comparison of the two enantiomers of Example 181
[3] = oral gavage in 0.5% methylcellulose

COc1cccc([C@@]2(O)C[C@H]3CCC(C3)[C@@H]2CN(C)C)c1 (stereo in doubt) [Example 2, 2-dimethylaminomethyl-3-(3-methoxy-phenyl)-bicyclo[3.2.1]octan-3-ol]
inhibition in vivo at 20 mg/kg ([1]; IV in 20% HP-β-CD): ≥ 50% | inhibition in vivo at 30 mg/kg [1, 3]: ≥ 50%

COc1cc(F)cc([C@@]2(O)C[C@H]3CC[C@H](C3)[C@@H]2CN(C)C)c1 (stereo in doubt) [Example 3, 2-Dimethylaminomethyl-3-(3-fluoro-5-methoxy-phenyl)-bicyclo[3.2.1]octan-3-ol]
inhibition in vivo at 20 mg/kg ([1]; IV in 20% HP-β-CD): ≥ 50% | inhibition in vivo at 30 mg/kg [1, 3]: ≥ 50%

COc1ccc(F)c([C@@]2(O)C[C@H]3CC[C@H](C3)[C@@H]2CN(C)C)c1 (stereo in doubt) [Example 5, 2-Dimethylaminomethyl-3-(2-fluoro-5-methoxy-phenyl)-bicyclo[3.2.1]octan-3-ol]
inhibition in vivo at 20 mg/kg [1, 3]: ≥ 50%

COc1cc(C)cc([C@@]2(O)C[C@H]3CC[C@H](C3)[C@@H]2CN(C)C)c1 (stereo in doubt) [Example 8, 2-Dimethylaminomethyl-3-(3-methoxy-5-methyl-phenyl)-bicyclo[3.2.1]octan-3-ol]
inhibition in vivo at 5 mg/kg ([1]; IV in 20% HP-β-CD): ≥ 50%

CN(C)C[C@H]1[C@@H]2CC[C@@H](C2)C[C@]1(O)c1cccc(O)c1 (stereo in doubt) [Example 13, 2-Dimethylaminomethyl-3-(3-hydroxy-phenyl)-bicyclo[3.2.1]octan-3-ol]
inhibition in vivo at 20 mg/kg ([1]; IV in 20% HP-β-CD): ≥ 50% | inhibition in vivo at 30 mg/kg [1, 3]: ≥ 50%

CN(C)C[C@H]1C2CC[C@@H](C2)C[C@]1(O)c1cc(O)ccc1F (stereo in doubt) [Example 39, 2-dimethylaminomethyl-3-(2-fluoro-5-hydroxy-phenyl)-bicyclo[3.2.1]octan-3-ol]
inhibition in vivo at 20 mg/kg [1, 3]: ≥ 50%

CN(C)C[C@H]1[C@@H]2CC[C@@H](C2)C[C@]1(O)c1cc(O)cc(F)c1 (stereo in doubt) [Example 40, 2-Dimethylaminomethyl-3-(3-fluoro-5-hydroxy-phenyl)-bicyclo[3.2.1]octan-3-ol]
inhibition in vivo at 20 mg/kg ([1]; IV in 20% HP-β-CD): ≥ 50%

CN(C)C[C@@H]1C(c2cccc(O)c2)=C[C@@H]2CC[C@H]1C2 (stereo in doubt) [Example 77, 3-(4-dimethylaminomethyl-bicyclo[3.2.1]oct-2-en-3-yl)-phenol]
inhibition in vivo at 20 mg/kg ([1]; IV in 20% HP-β-CD): ≥ 50%

COc1cccc(C2=C[C@H]3CC[C@H](C3)[C@@H]2CN(C)C)c1 (stereo in doubt) [Example 78, [3-(3-Methoxy-phenyl)-bicyclo[3.2.1]oct-3-en-2-ylmethyl]-dimethyl-amine]
inhibition in vivo at 20 mg/kg ([1]; IV in 20% HP-β-CD): ≥ 50%

CN(C)C[C@@H]1C(c2cc(O)cc(F)c2)=C[C@H]2CC[C@@H]1C2 (stereo in doubt) [Example 82, 3-(4-Dimethylaminomethyl-bicyclo[3.2.1]oct-2-en-3-yl)-5-fluoro-phenol]
inhibition in vivo at 2.5 mg/kg ([1]; IV in 20% HP-β-CD): ≥ 50%

CN(C)C[C@@H]1C(c2cc(O)ccc2F)=C[C@H]2CC[C@@H]1C2 (stereo in doubt) [Example 84, 3-(4-Dimethylaminomethyl-bicyclo[3.2.1]oct-2-en-3-yl)-4-fluoro-phenol]
inhibition in vivo at 2.5 mg/kg ([1]; IV in 20% HP-β-CD): ≥ 50%

CN(C)C[C@@H]1C(c2cccc(OC(=O)C(C)(C)C)c2)=C[C@@H]2CC[C@H]1C2 (stereo in doubt) [Example 105, 2,2-dimethyl-propionic acid 3-(4-dimethylaminomethyl-bicyclo[3.2.1]oct-2-en-3-yl)-phenyl ester]
inhibition in vivo at 5 mg/kg ([1]; IV in 20% HP-β-CD): ≥ 50%

CN(C)C[C@@H]1C(c2cccc(OC(=O)c3ccccc3)c2)=C[C@H]2CC[C@@H]1C2 (stereo in doubt) [Example 106, Benzoic acid 3-(4-dimethylaminomethyl-bicyclo[3.2.1]oct-2-en-3-yl)-phenyl ester]
inhibition in vivo at 20 mg/kg [1, 3]: ≥ 50%

CN(C)C[C@H]1[C@H]2CC[C@H](C2)C[C@H]1c1cccc(O)c1 (stereo in doubt) [Example 114, 3-(2-dimethylaminomethyl-bicyclo[3.2.1]oct-3-yl)-phenol]
inhibition in vivo at 20 mg/kg ([1]; IV in 20% HP-β-CD): ≥ 50%

COc1cccc([C@@H]2C[C@H]3CC[C@H](C3)[C@@H]2CN(C)C)c1 (stereo in doubt) [Example 115, [3-(3-methoxy-phenyl)-bicyclo[3.2.1]oct-2-ylmethyl]-dimethyl-amine]
inhibition in vivo at 20 mg/kg [1, 3]: ≥ 50% | inhibition in vivo at 30 mg/kg [1, 3]: ≥ 50%

CN(C)C[C@H]1[C@@H]2CC[C@@H](C2)C[C@H]1c1cc(O)cc(F)c1 (stereo in doubt) [Example 116, 3-(2-dimethylaminomethyl-bicyclo[3.2.1]oct-3-yl)-5-fluoro-phenol]
inhibition in vivo at 2.5 mg/kg ([1]; IV in 20% HP-β-CD): ≥ 50%

COc1cccc([C@]2(O)[C@@H](CN(C)C)CC[C@@H]3C[C@@H]32)c1 (stereo in doubt) [Example 148, 3-Dimethylaminomethyl-2-(3-methoxy-phenyl)-bicyclo[4.1.0] heptan-2-ol]
inhibition in vivo at 5 mg/kg ([1]; IV in 20% HP-β-CD): ≥ 50%

CN(C)C[C@H]1CC[C@@H]2C[C@@H]2[C@]1(O)c1cc(O)ccc1F (stereo in doubt) [Example 158, 3-Dimethylaminomethyl-2-(2-fluoro-5-hydroxy-phenyl)-bicyclo[4.1.0] heptan-2-ol]
inhibition in vivo at 5 mg/kg ([1]; IV in 20% HP-β-CD): ≥ 50%

Cc1cc(O)cc([C@]2(O)[C@@H](CN(C)C)CC[C@@H]3C[C@@H]32)c1 (stereo in doubt) [Example 159, 3-Dimethylaminomethyl-2-(3-hydroxy-5-methyl-phenyl)-bicyclo[4.1.0] heptan-2-ol]
inhibition in vivo at 5 mg/kg ([1]; IV in 20% HP-β-CD): ≥ 50%

CN(C)C[C@H]1[C@H]2CC[C@H](C2)C[C@]1(O)c1cccc(O)c1 [(+)-Enantioisomers, (+)-(1S,2R,3R,5R)-2-((dimethylamino)methyl)-3-(3-hydroxyphenyl)bicyclo[3.2.1]octan-3-ol]
biological activity in bioassay(s) [2]: better biological activity than (−)-enantioisomer

COc1ccc(F)c([C@@]2(O)C[C@H]3CC[C@H](C3)[C@@H]2CN(C)C)c1 [Example 17, 2-Dimethylamino-methyl-3-(2-fluoro-5-methoxy-phenyl)-bicyclo[3.2.1]octan-3-ol hydrochloride]
inhibition in vivo at 5 mg/kg ([1]; IV in 20% HP-β-CD): ≥ 50%

CN(C)C[C@H]1C2CC[C@@H](C2)C[C@]1(O)c1cc(OC(=O)C(C)(C)C)ccc1F [Example 65, 2,2-dimethyl-propionic acid 3-(2-dimethylaminomethyl-3-hydroxy-bicycle[3.2.1]oct-3-yl)-4-fluoro-phenyl ester]
inhibition in vivo at 20 mg/kg [1, 3]: ≥ 50%

CN(C)C[C@@H]1C(c2cc(F)cc(OC(=O)C(C)(C)C)c2)=C[C@H]2CC[C@@H]1C2 [Example 107, 2,2-Dimethyl-propionic-acid 3-(4-dimethyl-aminomethyl-bicyclo[3.2.1]oct-2-en-3-yl)-5-fluoro-phenyl ester]
inhibition in vivo at 5 mg/kg ([1]; IV in 20% HP-β-CD): ≥ 50%

COc1cccc(C2(O)CCCCC2CN(C)C)c1 (centres unmarked) [Tramadol, reference compound]
inhibition in vivo at 20 mg/kg ([1]; IV in 20% HP-β-CD): ≥ 50% | inhibition in vivo at 30 mg/kg [1, 3]: ≥ 50%

Source: patent publication US8802728B2, “Analgesic compounds, methods, and formulations” (Eli Lilly and Company, priority 2011, dated 2014)
